Data from US10478497B2, “Combinations of inecalcitol with an anti-CD38 agent and their uses for treating cancer” (HYBRIGENICS SA., priority 2016, dated 2019).

What was measured:
Type in all cases: cell-based, human
[1] = test system: HL-60 acute promyelocytic leukemia cell line; test: CD38 expression by flow cytometry on HL-60 cells
Source text: (§1) HL-60 acute promyelocytic leukemia cell line was purchased from ECACC (cat. 98070106), U-937 hystiocytic lymphoma cell line and MM.1S multiple myeloma cell line were purchased from ATCC (cat. CRL-2974 and cat CRL-1593,2, respectively), L-363 multiple myeloma cell line, L-428 classical Hodgkin lymphoma cell line and RS4,11 B-acute lymphoblastic leukemia cell lines were purchased from DSMZ (plasma cell leukemia, cat. ACC 49, cat. ACC 197 and cat. ACC 508, respectively). All cells were maintained in RPMI Medium 1640—GlutaMAX™ (Gibco 61870) except the RS4,11 cells in alpha-MEM Medium (Gibco 12571-063), supplemented with 10% heat inactivated charcoal stripped fetal bovine serum. All culture media were supplemented with 100 units/ml penicillin and 0.1 mg/ml streptomycin, and cell lines were cultured at 37° C. in a humidified atmosphere containing 5% CO2.
(§2) Cells were treated for 72 h with various concentrations of inecalcitol (Hybrigenics, Paris, France) before labelling with fluorescent anti-human CD38 FITC (eBioscience, Vienna, Austria, cat. 11-0389-41) or the matched isotype control: mouse IgG1 K FITC (eBioscience, Vienna Austria, cat. 11-4714-41) for 1 h at 4° C. in native buffer (PBS, 2% BSA, 0.1% sodium azide). After cell wash, fluorescence was measured on an ACEA NovoCyte Flow Cytometer.

[2] = test system: MM.1S multiple myeloma cell line; test: CD38 expression by flow cytometry on MM.1S cells
Source text: as §1, §2

[3] = test system: U-937 hystiocytic lymphoma cell line; test: CD38 expression by flow cytometry on U-937 cells
Source text: as §1, §2

[4] = test system: L-428 classical Hodgkin lymphoma cell line; test: CD38 expression by flow cytometry on L-428 cells
Source text: as §1, §2

[5] = test system: RS4,11 B-acute lymphoblastic leukemia cell line; test: CD38 expression by flow cytometry on RS4,11 cells
Source text: as §1, §2

[6] = test system: L-363 multiple myeloma cell line; test: CD38 expression by flow cytometry on L-363 cells
Source text: as §1, §2

For `C[C@H](CC#CC(C)(C)O)[C@H]1CC[C@@H]2/C(=C/C=C3C[C@@H](O)C[C@H](O)C3)CCC[C@@]21C` [inecalcitol, 14epi-, 19nor-, 23yne-, 1,25dihydroxy-cholecalciferol], the “effect on CD38 expression (fold increase of CD38 mean fluorescent signal), in words” value ([1]; FIG. 4, HL-60 cell line, dose dependent) was “enhances CD38 expression”, the EC50 ([1]; HL-60 cells, 72 h treatment, anti-human CD38 FITC flow cytometry, read-out: concentration which triggered 50% of the maximum CD38 induction (EC50)) was 0.43 nM and the “effect on CD38 expression (fold increase of CD38 mean fluorescent signal), in words” value ([2]; FIG. 1, MM.1S cell line, dose dependent) was “enhances CD38 expression”. For the same molecule, the EC50 ([2]; MM1.S, MM.1s cells, 72 h treatment, anti-human CD38 FITC flow cytometry, read-out: concentration which triggered 50% of the maximum CD38 induction (EC50)) was 0.49 nM, the “maximal increase in fluorescent labelling (CD38)” value (“maximal increase” for short) ([2]; MM.1s cells, 72 h treatment) was 5 fold and the “effect on CD38 expression (fold increase of CD38 mean fluorescent signal), in words” value ([3]; FIG. 3, U-937 cell line, dose dependent) was “enhances CD38 expression”. The “maximal increase” value ([3]; U-937 cells, 72 h treatment) was 5 fold, the EC50 ([3]; U-937 cells, 72 h treatment, anti-human CD38 FITC flow cytometry, read-out: concentration which triggered 50% of the maximum CD38 induction (EC50)) was 0.57 nM and the “effect on CD38 expression (fold increase of CD38 mean fluorescent signal), in words” value ([4]; FIG. 5, classical Hodgkin lymphoma cell line, dose dependent) was “enhances CD38 expression”. For the same molecule, the “increase in fluorescent labelling (CD38)” value ([4]; L-428 cells, 72 h treatment) was 2 fold, the EC50 ([4]; L-428 cells, 72 h treatment, anti-human CD38 FITC flow cytometry, read-out: concentration which triggered 50% of the maximum CD38 induction (EC50)) was 0.23 nM and the “effect on CD38 expression (fold increase of CD38 mean fluorescent signal), in words” value ([5]; FIG. 6, RS4.11 cell line, dose dependent) was “enhances CD38 expression”. The “increase in fluorescent labelling (CD38)” value ([5]; RS4,11 cells, 72 h treatment) was 2.5 fold, the EC50 ([5]; RS4,11 cells, 72 h treatment, anti-human CD38 FITC flow cytometry, read-out: concentration which triggered 50% of the maximum CD38 induction (EC50)) was 0.55 nM and the “effect on CD38 expression (fold increase of CD38 mean fluorescent signal), in words” value ([6]; FIG. 2, L-363 cell line, dose dependent) was “enhances CD38 expression”. For the same molecule, the “maximal increase” value ([6]; L-363 cells, 72 h treatment) was 5 fold and the EC50 ([6]; L-363 cells, 72 h treatment, anti-human CD38 FITC flow cytometry, read-out: concentration which triggered 50% of the maximum CD38 induction (EC50)) was 4 nM.
